# Assay results published in PMC11277083, “A Natural Bioactive Peptide from Pinctada fucata Pearls Can Be Used as a Potential Inhibitor of the Interaction between SARS-CoV-2 and ACE2 against COVID-19” (International Journal of Molecular Sciences, 2024).
# Read-outs that look alike come from different tables or passages of the source. Where no end group is shown, it is not given here.
# Assays:
# ACE2 [1] = settings: reduces the affinity between spiny proteins and ACE2; cited from earlier work
# ACE2 [2] = settings: compared with KKCH-ACE2 affinity; cited from earlier work
# [3] = system: virus S1 protein and the ACE2 receptor; settings: cited from earlier work
# HEK293T cells = settings: for survival rate of HEK293T cells: 2 h
# SARS-CoV-2 live virus = settings: 2 h
# Vero cells = settings: for survival rate of Vero cells: 2 h
# S1-RBD/ACE2 = target: T1, S1-RBD/ACE2 (Homo sapiens, UniProt Q9BYF1); assay: ELISA inhibition of S1-RBD binding to ACE2 (RayBio COVID-19 Spike ACE2 binding assay kit II); parameters: species or system SARS-CoV-2 (S1-RBD); settings: 2 h, room temperature, 450 nm, repeated twice in each group, read-out: inhibitory rate on S1-RBD/ACE2
# T1 construct: purchased RayBio (RayBiotech)
# T1 sequence (Q9BYF1 18-740): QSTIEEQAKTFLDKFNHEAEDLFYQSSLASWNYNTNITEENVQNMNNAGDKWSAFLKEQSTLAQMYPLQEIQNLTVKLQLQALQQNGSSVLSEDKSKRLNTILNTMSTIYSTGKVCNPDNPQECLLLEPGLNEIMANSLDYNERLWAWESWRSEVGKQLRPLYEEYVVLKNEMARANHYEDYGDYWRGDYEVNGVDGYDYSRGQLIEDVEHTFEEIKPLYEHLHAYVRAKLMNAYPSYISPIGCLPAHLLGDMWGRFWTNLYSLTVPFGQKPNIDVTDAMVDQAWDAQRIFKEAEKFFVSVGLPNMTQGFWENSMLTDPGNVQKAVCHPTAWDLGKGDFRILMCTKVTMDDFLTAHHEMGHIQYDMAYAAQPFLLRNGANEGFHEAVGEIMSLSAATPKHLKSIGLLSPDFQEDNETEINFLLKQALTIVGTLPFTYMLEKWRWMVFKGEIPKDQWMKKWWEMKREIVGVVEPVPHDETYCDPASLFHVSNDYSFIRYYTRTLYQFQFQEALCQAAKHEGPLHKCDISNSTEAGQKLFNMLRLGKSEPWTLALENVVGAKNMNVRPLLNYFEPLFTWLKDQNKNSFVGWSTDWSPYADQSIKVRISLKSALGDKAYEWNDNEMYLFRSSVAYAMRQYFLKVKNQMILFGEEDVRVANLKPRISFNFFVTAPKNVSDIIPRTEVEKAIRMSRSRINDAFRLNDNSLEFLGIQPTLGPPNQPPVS
# Experimental: The RayBio COVID-19 Spike ACE2 binding assay kit II (no. QHD43416) was used to detect the inhibitory effect of the KKCH peptides on the binding of the RBD protein and the ACE2 receptor protein. Using a PBS solution, KKCH was diluted to 10 μM, 90 μM, 180 μM, 360 μM, 720 μM, and 1440 μM. Then, 125 μL of test reagent was obtained by mixing different concentrations of the 10 μL KKCH peptide solutions with Fc-labeled recombinant S1-RBD protein solution. Next, 100 μL of test reagent was added to each well of a 96-well plate coated with the recombinant ACE2 protein, repeated twice in each group, and incubated at room temperature for 2 h. The plates were washed four times with a wash buffer to remove unbound S1-RBD proteins. Then, 100 μL of enzyme-labeled Anti-IgG was added to each well and incubated for 1 h, 100 μL of TMB was added at room temperature and incubated for 0.5 h, and 50 μL […] the reaction. The yellow intensity was measured at 450 nm, and the inhibition rate of the KKCH peptide was calculated.
# ACE2 protein = target: T2, ACE2 protein (Homo sapiens, UniProt Q9BYF1); assay: SPR affinity for ACE2 (Biacore T200, CM5 chip); settings: ACE2 on CM5 chip, 1:1 Langmuir binding model, read-out: association (Ka)
# T2 construct: purchased CUSABIO (Wuhan, China) CSB-MP866317HU
# T2 sequence (Q9BYF1 18-805): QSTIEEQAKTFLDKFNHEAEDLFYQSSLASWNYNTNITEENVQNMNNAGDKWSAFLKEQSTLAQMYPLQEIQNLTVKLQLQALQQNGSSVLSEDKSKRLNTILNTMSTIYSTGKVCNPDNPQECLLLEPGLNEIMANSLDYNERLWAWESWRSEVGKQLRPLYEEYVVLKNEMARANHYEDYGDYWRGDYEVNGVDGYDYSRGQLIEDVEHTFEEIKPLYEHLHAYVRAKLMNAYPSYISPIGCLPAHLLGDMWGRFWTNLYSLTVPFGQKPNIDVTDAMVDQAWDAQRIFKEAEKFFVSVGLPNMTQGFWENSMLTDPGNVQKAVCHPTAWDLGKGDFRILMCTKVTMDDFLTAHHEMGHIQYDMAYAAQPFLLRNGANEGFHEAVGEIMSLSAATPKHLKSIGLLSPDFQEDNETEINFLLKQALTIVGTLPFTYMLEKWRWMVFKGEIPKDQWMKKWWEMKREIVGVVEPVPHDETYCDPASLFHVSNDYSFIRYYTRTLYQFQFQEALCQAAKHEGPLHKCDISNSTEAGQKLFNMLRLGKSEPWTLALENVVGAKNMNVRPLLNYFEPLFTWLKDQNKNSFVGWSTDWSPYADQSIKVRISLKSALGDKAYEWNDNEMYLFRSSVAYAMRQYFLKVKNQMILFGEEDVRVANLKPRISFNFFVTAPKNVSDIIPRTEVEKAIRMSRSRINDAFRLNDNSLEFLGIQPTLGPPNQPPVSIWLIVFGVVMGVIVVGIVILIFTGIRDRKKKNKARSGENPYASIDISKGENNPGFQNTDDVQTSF
# Experimental: The ACE2 protein (no. CSB-MP866317HU) was a recombinant human protein purchased from CUSABIO (Wuhan, China). […] The ACE2 protein was diluted to 50 μg/mL with sodium acetate at pH 4.0. The protein was fixed on the CM5 chip at a flow rate of 10 μL/min, and the coupling time was 420 s. […] Biacore T200 Control software (v.2.0) was used to collect sample data, and the 1:1 Langmuir binding model was fitted globally to determine the final KD. The binding affinity KD could be calculated from dissociation (Kd)/association (Ka).
# HEK293T = settings: 394.10 μM; cited from earlier work
compound,measurement,setting,value
CCN(CC)CCCC(C)Nc1ccnc2cc(Cl)ccc12 (stereo not shown) [chloroquine],effect on ACE2,ACE2 [1],can prevent the glycosylation of ACE2
C[C@@]1(C(=O)O)CC[C@]2(C)CC[C@]3(C)C4=CC(=O)c5c(cc(O)c(O)c5C=O)[C@]4(C)CC[C@@]3(C)[C@@H]2C1 [demethylzeylasteral],Kd,ACE2 [2],1.74 µM
C[C@@H]1C[C@H]2[C@@H]3CCC4=CC(=O)C=C[C@]4(C)[C@@]3(F)[C@@H](O)C[C@]2(C)[C@@]1(O)C(=O)CO [dexamethasone],Kd,ACE2 [2],9.03 µM
O=c1c(-c2ccc(O)cc2)coc2c([C@@H]3O[C@H](CO)[C@@H](O)[C@H](O)[C@H]3O)c(O)ccc12 [puerarin],reduction of RU values of S1 protein and ACE2,[3],20 units
same,Kd,ACE2 [2],670 µM
KKCHFWPFPW [KKCH],survival rate of HEK293T cells,HEK293T cells; 40 μM,98.28%
same,survival rate of HEK293T cells,HEK293T cells; 80 μM,95.28%
same,survival rate of HEK293T cells,HEK293T cells; 160 μM,94.74%
same,survival rate of HEK293T cells,HEK293T cells; 240 μM,92.39%
same,survival rate of HEK293T cells,HEK293T cells; 320 μM,90.77%
same,survival rate of HEK293T cells,HEK293T cells; 400 μM,92.69%
same,survival rate of HEK293T cells,HEK293T cells; 480 μM,81.66%
same,effect on HEK293T cell viability (significance),"HEK293T cells; less than 480 μM, p > 0.05",no significant effect on cell viability
same,inhibitory rate against SARS-CoV-2,SARS-CoV-2 live virus; 10 μM,4.97%
same,inhibitory rate against SARS-CoV-2,SARS-CoV-2 live virus; 25 μM,11.32%
same,inhibitory rate against SARS-CoV-2,SARS-CoV-2 live virus; 50 μM,15.40%
same,inhibitory rate against SARS-CoV-2,SARS-CoV-2 live virus; 100 μM,17.91%
same,inhibitory rate against SARS-CoV-2,SARS-CoV-2 live virus; 150 μM,22.41%
same,inhibitory rate against SARS-CoV-2,SARS-CoV-2 live virus; 200 μM,32.01%
same,inhibitory rate against SARS-CoV-2,SARS-CoV-2 live virus; 350 μM,38.31%
same,inhibitory rate against SARS-CoV-2,SARS-CoV-2 live virus; 450 μM,54.80%
same,toxicity to Vero cells (significance),"Vero cells; 40 to 400 µM, p > 0.05 vs control",not toxic to the cells in this range
same,survival rate of Vero cells,Vero cells; 40 μM,97.81%
same,survival rate of Vero cells,Vero cells; 80 μM,96.97%
same,survival rate of Vero cells,Vero cells; 160 μM,98.23%
same,survival rate of Vero cells,Vero cells; 240 μM,96.21%
same,survival rate of Vero cells,Vero cells; 320 μM,95.85%
same,survival rate of Vero cells,Vero cells; 400 μM,92.64%
same,survival rate of Vero cells,Vero cells; 480 μM,90.44%
same,inhibition at 10 µM,S1-RBD/ACE2; 10 μM,6.8%
same,inhibition at 90 µM,S1-RBD/ACE2; 90 μM,10.9%
same,inhibition at 180 µM,S1-RBD/ACE2; 180 μM,17%
same,inhibition at 360 µM,S1-RBD/ACE2; 360 μM,34%
same,inhibition at 720 µM,S1-RBD/ACE2; 720 μM,89.7%
same,inhibition at 1440 µM,S1-RBD/ACE2; 1440 μM,94.1%
same,viability rate of BEAS-2B cells,BEAS-2B cells; 40 µM,99.80%
same,viability rate of BEAS-2B cells,BEAS-2B cells; 80 µM,99.77%
same,viability rate of BEAS-2B cells,BEAS-2B cells; 160 µM,99.37%
same,viability rate of BEAS-2B cells,BEAS-2B cells; 240 µM,99.63%
same,viability rate of BEAS-2B cells,BEAS-2B cells; 320 µM,98.07%
same,viability rate of BEAS-2B cells,BEAS-2B cells; 400 µM,95.87%
same,viability rate of BEAS-2B cells,BEAS-2B cells; 480 µM,82.95%
same,effect on BEAS-2B cell viability (significance),"BEAS-2B cells; less than 480 μM, p > 0.05",no significant effect on cell viability
same,kon,ACE2 protein,154000 ± 1.5e+09 M⁻¹ s⁻¹
thanatin: peptide (thanatin) derived from insects,cytotoxicity to HEK293T,HEK293T,no obvious cytotoxicity
tuftsin,Kd,ACE2 [2],460 µM
